Molecular target: T1, human FAAH (Homo sapiens, UniProt O00519)
T1 construct: host or cells: COS-7 cells, transient transfection; 13,000 g membrane fraction solubilised in 1% Triton X-100
T1 sequence (O00519 1-579): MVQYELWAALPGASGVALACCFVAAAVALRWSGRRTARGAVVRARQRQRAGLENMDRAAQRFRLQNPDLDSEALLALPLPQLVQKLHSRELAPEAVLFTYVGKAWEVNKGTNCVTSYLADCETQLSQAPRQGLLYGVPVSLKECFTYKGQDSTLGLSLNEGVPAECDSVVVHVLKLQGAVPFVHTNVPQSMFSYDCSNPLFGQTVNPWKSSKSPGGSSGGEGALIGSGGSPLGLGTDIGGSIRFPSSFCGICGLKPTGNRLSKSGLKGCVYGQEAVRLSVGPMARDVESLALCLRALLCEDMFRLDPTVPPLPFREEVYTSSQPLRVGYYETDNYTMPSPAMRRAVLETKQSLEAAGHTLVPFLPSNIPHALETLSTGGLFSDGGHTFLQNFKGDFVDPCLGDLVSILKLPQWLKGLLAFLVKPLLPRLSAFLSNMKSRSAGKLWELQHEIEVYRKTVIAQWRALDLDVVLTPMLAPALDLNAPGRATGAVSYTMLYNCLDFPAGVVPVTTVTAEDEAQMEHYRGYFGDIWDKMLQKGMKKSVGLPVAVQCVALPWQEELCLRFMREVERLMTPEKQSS
Test: Inhibition of human FAAH (fluorescence assay, AMC Arachidonoyl Amide substrate)
Assay type: biochemical
Conditions: solubilized human FAAH from transfected COS-7 cells; 30 minutes preincubation; 20 μM AMC-Arachidonoyl substrate; 4 hours at room temperature
Experimental: Human FAAH Preparation: COS-7 cells were split the day before, 1:5 into 150 mm×25 mm cell culture dishes (Corning Inc., Cat. No. 430599). Transient transfection took place at 30-40% confluency according to FuGENE 6 Transfection Reagent (Roche, Cat. No. 11814 443 001).
Transfection Procedure: The FuGENE transfection 6 reagent (45 uL) was added to 1410 μL of media (DMEM, serum free without pen/strep) in a 15 mL conical tube and incubated at room temp for 5 minutes, followed by the addition of FAAH plasmid DNA (15 μg) (OriGene Cat. No. TC119221, Genbank Accession No. NM 001441.1, 0.67 ug/uL) and a further incubation of 15 minutes at room temperature. The resulting solution was added into one dish of 30-40% confluent COS-7 cells in a drop-wise manner. The COS-7 cell dish was subsequently incubated for 48 hours. The cells are then harvested.
Harvest procedure: Media was aspirated from the dishes and the cells rinsed with 10 mL PBS. The PBS was removed and 3 mL of PBS added to the dish. The dish was scraped to resuspend the cells, and the subsequent cell suspension collected into a 15 mL conical tube. The cells were pelleted by centrifugation at 1200 rpm for 5 minutes in a bench top centrifuge. PBS was removed and the cell pellet snap frozen in liquid nitrogen and stored at −80° C.
COS-7 Cells—FAAH Purification: • (1) Fractionation: Frozen cell pellets from transient transfections were thawed on ice and resuspended in 12.5 mM Hepes pH 8.0, 100 mM NaCl, 1 mM EDTA (10 mL/0.2 g cell pellet). The pellets were dounce homogenized and then sonicated to produce cell extract. The cell extract was subsequently centrifuged at 1000 g to remove cellular debris. The pellet was discarded and the supernatant centrifuged at 13,000 g for 20 minutes. The pellet contained membrane bound FAAH. The supernatant was discarded and the pellet resolubilized. • (2) Re-solubilization: The fraction of interest, (13,000 g, membrane fraction) was re-suspended in 2.3 mL re-suspension buffer (20 mM Hepes pH 7.8, 10% v/v Glycerol, 1 mM EDTA, 1% Triton X-100) and the sample incubated on ice for 1 hour and then centrifuged to remove any particulate matter. The supernatant containing solubilized human FAAH was aliquoted and snap frozen in liquid nitrogen and stored at −80° C. until use. • (3) Characterization: Protein Concentration determined by Bradford assay. • SDS gel and Western blot to confirm presence of FAAH • FAAH activity assay • Km determination—96-well assay • Linear dependence—96-well assay • Standard compound Ki determination—384-well assay
Human FAAH assay; Experimental Protocol: A 0.1 mg/mL Human FAAH solution was made up in FAAH reaction buffer, and 24 ul pipeted into a 384 well plate. To this was added 1 μL of a 3 fold serially diluted inhibitor from a DMSO stock solution. The FAAH solution and inhibitor were incubated for 30 minutes at room temperature. The FAAH reaction was initiated by the addition of 25 μL of 40 μM AMC Arachidonoyl Amide in FAAH reaction buffer, yielding a final reaction human FAAH preparation concentration of 0.05 mg/ml and AMC-Arachidonoyl substrate concentration of 20 μM, reaction volume 50 μL. The reaction was allowed to proceed for 4 hours at room temperature. The reaction was stopped by the addition of 25 μL 12 μM a-ketoheterocycle (Cayman Chemicals, catalogue # 10435). The microtiter plate was read in the envision plate reader.
The raw fluorescence was plotted on the y axis and the inhibitor concentration on the x axis to give a dose response inhibition curve. The data was fitted to a single site competitive inhibition equation, fixing the Km for the human enzyme to 12 μM and 9 μM respectively.

`BrC1=NO[C@@H](c2ccc3nccnc3c2)C1` [II-11a] and `BrC1=NO[C@H](c2ccc3nccnc3c2)C1` [II-11b] cannot be ordered by Ki: no more than 100 nM for the first, no more than 100 nM for the second.

`BrC1=NO[C@H](c2cccnc2)C1` [II-2b] and `BrC1=NO[C@@H](c2cccnc2)C1` [II-2a] cannot be ordered by Ki: no less than 1000 nM for the first, no less than 1000 nM for the second.

`C[C@]1(c2cnc(-c3ccccc3)s2)CC(Oc2cncnc2)=NO1` [II-22a] and `C[C@@]1(c2cnc(-c3ccccc3)s2)CC(Oc2cncnc2)=NO1` [II-22b] cannot be ordered by Ki: no more than 100 nM for the first, no more than 100 nM for the second.

`CC(C)(C)OC(=O)N1CCC([C@H]2CC(Br)=NO2)CC1` [II-16a] and `CC(C)(C)OC(=O)N1CCC([C@@H]2CC(Br)=NO2)CC1` [II-16b] cannot be ordered by Ki: no more than 100 nM for the first, no more than 100 nM for the second.

`BrC1=NO[C@H](c2ccc3ncccc3c2)C1` [II-9b] and `BrC1=NO[C@@H](c2ccc3ncccc3c2)C1` [II-9a] cannot be ordered by Ki: no more than 100 nM for the first, no more than 100 nM for the second.

`BrC1=NO[C@@H](c2cnn(-c3ccccc3)c2)C1` [II-4a] and `BrC1=NO[C@H](c2cnn(-c3ccccc3)c2)C1` [II-4-b] fall in the same range of Ki: 100 to 1000 nM for the first, 100 to 1000 nM for the second.

`CS(=O)(=O)c1ccc(OC2=NO[C@@H](c3cnc(-c4ccccc4)s3)C2)cn1` [II-28a] and `CS(=O)(=O)c1ccc(OC2=NO[C@H](c3cnc(-c4ccccc4)s3)C2)cn1` [II-28b] cannot be ordered by Ki: no more than 100 nM for the first, no more than 100 nM for the second.

`CC(C)(C)OC(=O)N1CCN(C[C@H]2CC(Br)=NO2)CC1` [II-14a] and `CC(C)(C)OC(=O)N1CCN(C[C@@H]2CC(Br)=NO2)CC1` [II-14b] cannot be ordered by Ki: no more than 100 nM for the first, no more than 100 nM for the second.

`c1cncc(-c2ccc([C@@H]3CC(Oc4cncnc4)=NO3)s2)c1` [II-26b] and `c1cncc(-c2ccc([C@H]3CC(Oc4cncnc4)=NO3)s2)c1` [II-26a] cannot be ordered by Ki: no more than 100 nM for the first, no more than 100 nM for the second.

`C[C@]1(c2cnc(-c3ccccc3)s2)CC(Br)=NO1` [II-18a] and `C[C@@]1(c2cnc(-c3ccccc3)s2)CC(Br)=NO1` [II-18b] cannot be ordered by Ki: no more than 100 nM for the first, no more than 100 nM for the second.

`O=C(O)c1ccc(OC2=NO[C@@H](c3ccc(-c4cccnc4)s3)C2)cn1` [II-27a] and `O=C(O)c1ccc(OC2=NO[C@H](c3ccc(-c4cccnc4)s3)C2)cn1` [II-27b] cannot be ordered by Ki: no more than 100 nM for the first, no more than 100 nM for the second.

`BrC1=NO[C@@H](c2cc(-c3ccccc3)cs2)C1` [II-8a] and `BrC1=NO[C@H](c2cc(-c3ccccc3)cs2)C1` [II-8b] cannot be ordered by Ki: no more than 100 nM for the first, no more than 100 nM for the second.

`BrC1=NO[C@H](c2ccc(-c3ccccc3)s2)C1` [II-7b] and `BrC1=NO[C@@H](c2ccc(-c3ccccc3)s2)C1` [II-7a] cannot be ordered by Ki: no more than 100 nM for the first, no more than 100 nM for the second.

`BrC1=NO[C@H](c2ccc(-c3cccnc3)s2)C1` [II-25b] and `BrC1=NO[C@@H](c2ccc(-c3cccnc3)s2)C1` [II-25a] cannot be ordered by Ki: no more than 100 nM for the first, no more than 100 nM for the second.

`O=C(OCc1ccccc1)N1CCC([C@H]2CC(Br)=NO2)CC1` [II-15a] and `O=C(OCc1ccccc1)N1CCC([C@@H]2CC(Br)=NO2)CC1` [II-15b] fall in the same range of Ki: 100 to 1000 nM for the first, 100 to 1000 nM for the second.

`BrC1=NO[C@H](c2ccccn2)C1` [II-3b] and `BrC1=NO[C@@H](c2ccccn2)C1` [II-3a] cannot be ordered by Ki: no less than 1000 nM for the first, no less than 1000 nM for the second.

`c1ccc(-c2ncc([C@@H]3CC(Oc4cccnc4)=NO3)s2)cc1` [II-21b] and `c1ccc(-c2ncc([C@H]3CC(Oc4cccnc4)=NO3)s2)cc1` [II-21a] cannot be ordered by Ki: no more than 100 nM for the first, no more than 100 nM for the second.

`BrC1=NO[C@H](c2cnc3ccccc3c2)C1` [II-10b] and `BrC1=NO[C@@H](c2cnc3ccccc3c2)C1` [II-10a] cannot be ordered by Ki: no more than 100 nM for the first, no more than 100 nM for the second.

`C[C@@]1(c2cnc(-c3ccccc3)s2)CC(Oc2cccnc2)=NO1` [II-23b] and `C[C@]1(c2cnc(-c3ccccc3)s2)CC(Oc2cccnc2)=NO1` [II-23a] cannot be ordered by Ki: no more than 100 nM for the first, no more than 100 nM for the second.

`CC(C)(C)OC(=O)Nc1nc2ccc([C@H]3CC(Br)=NO3)cc2s1` [II-13a] and `CC(C)(C)OC(=O)Nc1nc2ccc([C@@H]3CC(Br)=NO3)cc2s1` [II-13b] fall in the same range of Ki: 100 to 1000 nM for the first, 100 to 1000 nM for the second.

`Clc1ccc(-c2ncc([C@@H]3CC(Br)=NO3)s2)cc1` [II-17b] and `Clc1ccc(-c2ncc([C@H]3CC(Br)=NO3)s2)cc1` [II-17a] cannot be ordered by Ki: no more than 100 nM for the first, no more than 100 nM for the second.

Going from `C[C@@H]1C(Br)=NO[C@H]1c1cnc(-c2ccccc2)s1` [II-20a] to `C[C@H]1C(Br)=NO[C@H]1c1cnc(-c2ccccc2)s1` [II-19a], the Ki falls from no less than 1000 nM to no more than 100 nM.

`O[C@@H](CNC1=NO[C@@H](c2cc(-c3ccccc3)cs2)C1)c1ccccc1` [II-31a] and `O[C@H](CNC1=NO[C@@H](c2cc(-c3ccccc3)cs2)C1)c1ccccc1` [II-30a] cannot be ordered by Ki: no less than 1000 nM for the first, no less than 1000 nM for the second.

`Cc1nc(-c2ccccc2)sc1[C@@]1(C)CC(Br)=NO1` [II-24a] and `Cc1nc(-c2ccccc2)sc1[C@]1(C)CC(Br)=NO1` [II-24b] fall in the same range of Ki: 100 to 1000 nM for the first, 100 to 1000 nM for the second.

`BrC1=NO[C@H](c2cnc(-c3ccccc3)s2)C1` [II-6b] and `BrC1=NO[C@@H](c2cnc(-c3ccccc3)s2)C1` [II-6a] cannot be ordered by Ki: no more than 100 nM for the first, no more than 100 nM for the second.

`O[C@@H](CNC1=NO[C@H](c2cc(-c3ccccc3)cs2)C1)c1ccccc1` [II-31b] and `BrC1=NO[C@H](c2csc(-c3ccccc3)n2)C1` [II-5b] cannot be ordered by Ki: no less than 1000 nM for the first, no less than 1000 nM for the second.

`C[C@@]1(c2cnc(-c3ccccc3)s2)CC(Oc2ccc(S(C)(=O)=O)nc2)=NO1` [II-29b] and `C[C@]1(c2cnc(-c3ccccc3)s2)CC(Oc2ccc(S(C)(=O)=O)nc2)=NO1` [II-29a] cannot be ordered by Ki: no more than 100 nM for the first, no more than 100 nM for the second.

`BrC1=NO[C@@H](c2ccncc2)C1` [II-1a] and `BrC1=NO[C@H](c2ccncc2)C1` [II-1b] cannot be ordered by Ki: no less than 1000 nM for the first, no less than 1000 nM for the second.

Compared with `C[C@H]1C(Br)=NO[C@@H]1c1cnc(-c2ccccc2)s1` [II-20b], `C[C@@H]1C(Br)=NO[C@@H]1c1cnc(-c2ccccc2)s1` [II-19b] is lower in Ki: no less than 1000 nM for the first, no more than 100 nM for the second.

For `BrC1=NO[C@@H](c2csc(-c3ccccc3)n2)C1` [II-5a], the Ki was no less than 1000 nM.

Source: patent US8927551B2, “Isoxazolines as inhibitors of fatty acid amide hydrolase” (Infinity Pharmaceuticals, Inc., priority 2009, dated 2015)
